Data as given in patent publication US20200325449A1, “COMPLEMENT INHIBITION FOR IMPROVING CELL VIABILITY” (THE CLEVELAND CLINIC FOUNDATION, priority 2016, published 2020).
“Also recorded” adds a separate entry of the source.

Key:
C3aR on neutrophils = target: T1, C3aR on neutrophils (Homo sapiens, UniProt Q16581); assay: Neutrophil- and NHS-mediated MSC damage assay with C3aR antagonist; format: cell-based; details: HL60-derived neutrophils plus 30% NHS; antagonist alone, 10 μM
T1 construct: endogenous in cells; host or cells: human neutrophils from donor blood or differentiated from HL-60 cells
T1 sequence (Q16581 1-482): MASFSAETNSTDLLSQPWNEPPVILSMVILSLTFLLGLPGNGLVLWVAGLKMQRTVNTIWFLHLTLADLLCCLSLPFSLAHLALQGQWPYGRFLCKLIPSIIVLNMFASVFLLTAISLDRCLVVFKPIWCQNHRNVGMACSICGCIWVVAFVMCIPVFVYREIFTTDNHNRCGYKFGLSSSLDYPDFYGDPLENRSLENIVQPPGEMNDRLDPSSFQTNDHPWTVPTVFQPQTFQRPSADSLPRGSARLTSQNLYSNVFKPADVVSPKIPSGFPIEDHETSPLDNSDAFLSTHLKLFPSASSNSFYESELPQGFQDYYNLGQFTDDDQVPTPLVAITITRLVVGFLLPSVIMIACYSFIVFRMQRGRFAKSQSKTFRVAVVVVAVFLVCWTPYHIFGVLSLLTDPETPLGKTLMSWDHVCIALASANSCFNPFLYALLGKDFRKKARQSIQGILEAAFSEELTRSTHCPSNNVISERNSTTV
Description: Neutrophil-mediated MSC damage assay. Human neutrophils, either purified from healthy donor peripheral blood mononuclear cells (PBMCs) by Ficoll centrifugation (provided by the Hematopoietic Stem Cells Core Facility at Case Western Reserve University) or differentiated from the neutrophil progenitor cell line HL-60 (ATCC), were used. Collins et al., Proc Natl Acad Sci USA. 1978; 75:2458-62. In some experiments, neutrophil-mediated MSC damage was assessed using a similar BCECF-based assay to that already described. In brief, 2×10^4 MSCs were labeled with BCECF-AM as described above, then, after washing, the labeled MSC were incubated for 30 min at 37° C. with different numbers of neutrophils in the presence or absence of 30% NHS in 100 μl of GVB++ buffer with various concentrations of the neutrophil function inhibitor wortmannin that inhibits oxidative burst (Sue-A-Quan et al., Journal of cellular physiology. 1997; 172:94-108) (Cayman Chemical, Ann Arbor, Mich.) and released BCECF in the supernatants was measured as described. The percentage BCECF release (cell injury) was calculated as above. […]

Neu5GC on MSCs = assay: Neu5GC detection on MSCs; format: cell-based, human; details: MSCs cultured 7 days with Neu5AC in complete medium vs without
Description: Neu5GC detection on MSCs. This was performed as described previously by Ghaderi et al. In brief, after blocking with a 0.5% solution of fish skin gelatin (Sigma-Aldrich, St. Louis, Mo.), MSCs were incubated for 30 min on ice with 5 μg/ml of chicken anti-Neu5GC IgY or control IgY, then were washed, stained with 5 μg/ml of fluorescein isothiocyanate (FITC)-labeled anti-IgY antibody (Jackson ImmunoResearch Laboratories, West Grove, Pa.), and analyzed on a flow cytometer (BD FACSCalibur, San Jose, Calif.).

MSCs [1] = assay: In vitro damage of MSCs (BCECF release) after contact with serum; format: cell-based; details: MSCs cultured with Neu5AC (lower Neu5GC levels) vs without; 20% or 30% normal human serum
Description: Measurement of in vitro damage of MSCs. An established fluorescence dye release assay was used to assess MSC injury after contact with serum. In brief, 2×10^5 heparin-painted or mock-painted MSCs were first loaded by incubation for 30 min at 37° C. with 5 μM 2′,7′-bis-(2-carboxyethyl)-5-(and-6)-carboxyfluorescein acetoxymethyl ester (BCECF-AM) (Thermo Fisher Scientific™, Grand Island, N.Y.). After 3 washes, the BCECF-loaded MSCs were incubated for 30 min at 37° C. with 20 or 30% normal human serum in 100 μL of GVB++, then the cells were removed by centrifugation and released BCECF in the supernatant measured on a SpectraMax Gemini XS (Molecular Devices, Sunnyvale, Calif.) with excitation and emission wavelengths, respectively, of 485 nm and 538 nm. The MSC damage (percentage of BCECF release) was calculated as ([A−B]/[C−B])×100%, where A represents the mean experimental BCECF release, B the mean spontaneous BCECF release, and C the mean maximum BCECF release induced by incubating the cells with 0.1% Triton-X100.

[2] = system: human IgGs and IgMs on MSCs; assay: MSC serum immunoglobulin binding assay; format: cell-based; details: MSCs cultured with Neu5AC, then pooled normal human serum
Description: MSC serum immunoglobulin binding assay. MSCs (0.5×10^6) cultured in the presence or absence of 3 mM of Neu5AC for a week were incubated for 30 min on ice with 30% pooled normal human serum in PBS. After washing, the cells were stained for cell surface-bound human IgGs and IgMs with 2 μg/ml of anti-human IgG or anti-human IgM antibodies (Jackson ImmunoResearch Laboratories, West Grove, Pa.) and examined by flow cytometry.

[3] = system: complement classical pathway; assay: Complement classical pathway activation ex vivo assay (EshA C3b deposition); format: in vivo; details: plasma of WT C57BL/6 mice 30 min after s.c. heparin 20 U/mouse vs saline
Description: (§1) Complement alternative pathway and classical pathway activation ex vivo assays. Mice were injected subcutaneously (s.c.) with 20 U of heparin (MP Biomedicals, Solon, Ohio) in saline or saline alone, then blood samples were collected 30 min later and immediately centrifuged for 5 min at 4° C. to collect the plasma. The activity of the complement alternative pathway was assessed using a zymosan C3b deposition assay and complement classical pathway activity was measured using an antibody-sensitized sheep erythrocytes (EshA) C3b deposition assay.

MSCs [4] = assay: In vivo damage of MSCs (BCECF release in plasma); parameters: species or system mice; details: BCECF-labeled MSCs infused via tail vein 10 min after s.c. heparin vs saline
Description: Measurement of in vivo damage of MSCs. In vivo MSC damage after infusion was also examined using a BCECF release assay. In brief, each mouse was injected subcutaneously with 500 U of heparin in saline or saline alone, then 1×10^6 MSCs labeled with BCECF were injected by the tail vein, then blood samples were collected after 0, 20, 40, and 60 min and released BCECF in the plasma measured on a SpectraMax Gemini XS (Molecular Devices, Sunnyvale, Calif.) as above.
To evaluate in vivo damage to MSCs with or without heparin painting, 0.5×10^6 heparin-painted or mock-painted MSCs were labeled with BCECF, then injected into the tail vein and blood sample collected and the plasma assayed for levels of released BCECF as above.

[5] = system: complement alternative pathway; assay: Complement alternative pathway activation ex vivo assay (zymosan C3b deposition); format: in vivo; details: plasma of WT C57BL/6 mice 30 min after s.c. heparin 20 U/mouse vs saline
Description: as §1

primary neutrophils = assay: Primary neutrophil-mediated MSC damage with purified C5a; format: cell-based; details: purified human C5a 50 ng/ml, no NHS, 4 h
Description: Neutrophil-mediated MSC damage assay. Human neutrophils, either purified from healthy donor peripheral blood mononuclear cells (PBMCs) by Ficoll centrifugation (provided by the Hematopoietic Stem Cells Core Facility at Case Western Reserve University) or differentiated from the neutrophil progenitor cell line HL-60 (ATCC), were used. Collins et al., Proc Natl Acad Sci USA. 1978; 75:2458-62. In some experiments, neutrophil-mediated MSC damage was assessed using a similar BCECF-based assay to that already described. In brief, 2×10^4 MSCs were labeled with BCECF-AM as described above, then, after washing, […] neutrophils in the presence or absence of 30% NHS in 100 μl of GVB++ buffer with various concentrations of the neutrophil function inhibitor wortmannin that inhibits oxidative burst (Sue-A-Quan et al., Journal of cellular physiology. 1997; 172:94-108) (Cayman Chemical, Ann Arbor, Mich.) and released BCECF in the supernatants was measured as described. The percentage BCECF release (cell injury) was calculated as above. In some experiments, a C5aR antagonist (JPE1375, Calbiochem, Billerica, Mass.)[27] or a C3aR antagonist (SB 290157, Calbiochem, Billerica, Mass.)[28] were added, both at […], to assess the role of C3aR and C5aR on neutrophils, while, in other experiments, NHS was omitted and 50 ng/ml of purified C5a (Complement technology Inc, Tyler, Tex.) added instead.

neutrophils = details: Ehrengruber et al. 1994; cited from earlier work

In the case of `NC(N)=NCCC[C@H](NC(=O)COCC(c1ccccc1)c1ccccc1)C(=O)O` [C3aR antagonist], the “neutrophil-mediated MSC damage (BCECF release)” value (C3aR on neutrophils) is reported as “no appreciable effect”.

In the case of `CC(=O)N[C@H]1[C@H]([C@H](O)[C@H](O)CO)OC(O)(C(=O)O)C[C@@H]1O` (stereo partly drawn) [Neu5AC, N-acetylneuraminic acid], the “Neu5GC levels on the MSC surface” value (Neu5GC on MSCs) is reported as “significantly reduced”, the “complement-mediated MSC injury” value (MSCs [1]) is reported as “less complement-mediated injury; also recorded: moderate reduction” and the “amount of bound IgM and IgG on MSCs” value [2] is reported as “decrease”.

For heparin, the “C3 deposition on the surface of EshA (classical pathway)” value [3] was “markedly reduced”, the “in vivo MSC cell damage (released BCECF in the plasma)” value (MSCs [4]) was “protected” and the “C3 deposition on the surface of zymosan (alternative pathway)” value [5] was “markedly reduced”.

B1: C5a: purified human C5a, anaphylatoxin (Complement technology Inc) (protein, UniProt P01031 678-751, looked up)
C5a anaphylatoxin: TLQKKIEEIAAKYKHSVVKKCCYDGACVNNDETCEQRAARISLGPRCIKAFTECCVVASQLRANISHKDMQLGR
modifications: C5a anaphylatoxin
In the case of B1, the “MSC damage by primary neutrophils” value (primary neutrophils) is given as “significant MSC damage” and the “potency in activating neutrophils relative to C3a” value (neutrophils) is given as 50-100 times.
